Reference: paper PMC5078040 (Oncotarget, 2016)

Legend:
[1] = biological target: T1, ABL1(F317L)-phosphorylated (Homo sapiens, UniProt P00519, F317L); assay: KinomeScan; type: binding; settings: 1uM
T1 construct: purchased DiscoveRx KINOMEscan

[2] = biological target: T2, ABL1(Q252H)-nonphosphorylated (Homo sapiens, UniProt P00519, Q252H); assay: KinomeScan; type: binding; settings: 1uM
T2 construct: purchased DiscoveRx KINOMEscan

AXL = biological target: T3, AXL (Homo sapiens, UniProt P30530); assay: KinomeScan; type: binding; settings: 1uM
T3 construct: purchased DiscoveRx KINOMEscan

BRK = biological target: T4, BRK (Homo sapiens, UniProt Q13882); assay: KinomeScan; type: binding; settings: 1uM
T4 construct: purchased DiscoveRx KINOMEscan

CDK9 = biological target: T5, CDK9 (Homo sapiens, UniProt P50750); assay: KinomeScan; type: binding; settings: 1uM
T5 construct: purchased DiscoveRx KINOMEscan

EGFR(G719C) = biological target: T6, EGFR(G719C) (Homo sapiens, UniProt P00533, G719C); assay: KinomeScan; type: binding; settings: 1uM
T6 construct: purchased DiscoveRx KINOMEscan

[3] = biological target: T7, EGFR(L747-E749del, A750P) (Homo sapiens, UniProt P00533, A750P/DEL747-749); assay: KinomeScan; type: binding; settings: 1uM
T7 construct: purchased DiscoveRx KINOMEscan

EPHA1 = biological target: T8, EPHA1 (Homo sapiens, UniProt P21709); assay: KinomeScan; type: binding; settings: 1uM
T8 construct: purchased DiscoveRx KINOMEscan

ERBB4 = biological target: T9, ERBB4 (Homo sapiens, UniProt Q15303); assay: KinomeScan; type: binding; settings: 1uM
T9 construct: purchased DiscoveRx KINOMEscan

FLT3(D835Y) = biological target: T10, FLT3(D835Y) (Homo sapiens, UniProt P36888, D835Y); assay: KinomeScan; type: binding; settings: 1uM
T10 construct: purchased DiscoveRx KINOMEscan

FLT3(K663Q) = biological target: T11, FLT3(K663Q) (Homo sapiens, UniProt P36888, K663Q); assay: KinomeScan; type: binding; settings: 1uM
T11 construct: purchased DiscoveRx KINOMEscan

HIPK4 = biological target: T12, HIPK4 (Homo sapiens, UniProt Q8NE63); assay: KinomeScan; type: binding; settings: 1uM
T12 construct: purchased DiscoveRx KINOMEscan

HUNK = biological target: T13, HUNK (Homo sapiens, UniProt P57058); assay: KinomeScan; type: binding; settings: 1uM
T13 construct: purchased DiscoveRx KINOMEscan

IKK-beta = biological target: T14, IKK-beta (Homo sapiens, UniProt O14920); assay: KinomeScan; type: binding; settings: 1uM
T14 construct: purchased DiscoveRx KINOMEscan

INSR = biological target: T15, INSR (Homo sapiens, UniProt P06213); assay: KinomeScan; type: binding; settings: 1uM
T15 construct: purchased DiscoveRx KINOMEscan

IRAK4 = biological target: T16, IRAK4 (Homo sapiens, UniProt Q9NWZ3); assay: KinomeScan; type: binding; settings: 1uM
T16 construct: purchased DiscoveRx KINOMEscan

MTOR = biological target: T17, MTOR (Homo sapiens, UniProt P42345); assay: KinomeScan; type: binding; settings: 1uM
T17 construct: purchased DiscoveRx KINOMEscan

MYLK = biological target: T18, MYLK (Homo sapiens, UniProt Q15746); assay: KinomeScan; type: binding; settings: 1uM
T18 construct: purchased DiscoveRx KINOMEscan

NDR1 = biological target: T19, NDR1 (Homo sapiens, UniProt Q15208); assay: KinomeScan; type: binding; settings: 1uM
T19 construct: purchased DiscoveRx KINOMEscan

PAK6 = biological target: T20, PAK6 (Homo sapiens, UniProt Q9NQU5); assay: KinomeScan; type: binding; settings: 1uM
T20 construct: purchased DiscoveRx KINOMEscan

PIK3CA(H1047Y) = biological target: T21, PIK3CA(H1047Y) (Homo sapiens, UniProt P42336, H1047Y); assay: KinomeScan; type: binding; settings: 1uM
T21 construct: purchased DiscoveRx KINOMEscan

PKMYT1 = biological target: T22, PKMYT1 (Homo sapiens, UniProt Q99640); assay: KinomeScan; type: binding; settings: 1uM
T22 construct: purchased DiscoveRx KINOMEscan

RET(M918T) = biological target: T23, RET(M918T) (Homo sapiens, UniProt P07949, M918T); assay: KinomeScan; type: binding; settings: 1uM
T23 construct: purchased DiscoveRx KINOMEscan

ROCK2 = biological target: T24, ROCK2 (Homo sapiens, UniProt O75116); assay: KinomeScan; type: binding; settings: 1uM
T24 construct: purchased DiscoveRx KINOMEscan

[4] = biological target: RPS6KA5(Kin.Dom.2-C-terminal) (Homo sapiens, UniProt O75582); assay: KinomeScan; type: binding; settings: 1uM
[5] = biological target: T25, RSK3(Kin.Dom.2-C-terminal) (Homo sapiens, UniProt Q15349); assay: KinomeScan; type: binding; settings: 1uM
T25 construct: RSK3(Kin.Dom.2-C-terminal); purchased DiscoveRx KINOMEscan

SRPK3 = biological target: T26, SRPK3 (Homo sapiens, UniProt Q9UPE1); assay: KinomeScan; type: binding; settings: 1uM
T26 construct: purchased DiscoveRx KINOMEscan

SYK = biological target: T27, SYK (Homo sapiens, UniProt P43405); assay: KinomeScan; type: binding; settings: 1uM
T27 construct: purchased DiscoveRx KINOMEscan

TAOK1 = biological target: T28, TAOK1 (Homo sapiens, UniProt Q7L7X3); assay: KinomeScan; type: binding; settings: 1uM
T28 construct: purchased DiscoveRx KINOMEscan

TLK2 = biological target: T29, TLK2 (Homo sapiens, UniProt Q86UE8); assay: KinomeScan; type: binding; settings: 1uM
T29 construct: purchased DiscoveRx KINOMEscan

TNNI3K = biological target: T30, TNNI3K (Homo sapiens, UniProt Q59H18); assay: KinomeScan; type: binding; settings: 1uM
T30 construct: purchased DiscoveRx KINOMEscan

TRPM6 = biological target: T31, TRPM6 (Homo sapiens, UniProt Q9BX84); assay: KinomeScan; type: binding; settings: 1uM
T31 construct: purchased DiscoveRx KINOMEscan

TSSK1B = biological target: T32, TSSK1B (Homo sapiens, UniProt Q9BXA7); assay: KinomeScan; type: binding; settings: 1uM
T32 construct: purchased DiscoveRx KINOMEscan

TXK = biological target: T33, TXK (Homo sapiens, UniProt P42681); assay: KinomeScan; type: binding; settings: 1uM
T33 construct: purchased DiscoveRx KINOMEscan

AML patient primary cell = assay: Anti-proliferative efficacy against patient primary cells; type: cell-based; settings: Homo sapiens
Description: Mononuclear cells were isolated from AML patients. Mononuclear cells were isolated by density gradient centrifugation through Ficoll-Plaque Plus (Amersham Pharmacia Biotech AB, Uppsala, Sweden) at 2000 rpm for 30 minutes, followed by two washes in 1X PBS. Freeze-thawed cells were then cultured in liquid culture (DMEM, supplemented with 20% FBS). All blood and bone marrow samples from AML patients were obtained through written consent under approval of the Dana Farber Cancer Institute Institutional Review Board. The ethics committees approved the consent procedure.
Cells were grown in 96-well culture plates (3000-4000/well). […] Cell proliferation was determined after treatment with compounds for 72 hours. Cell viability was measured using the CellTiter–Glo Assay Kit (Promega, USA), according to the manufacturer's instructions, and luminescence was measured in a multi-label reader (Envision, PerkinElmer, USA). Data were normalized to control groups (DMSO) and represented by the mean of three independent measurements with standard error <20%. GI50 values were calculated using Prism 5.0 (GraphPad Software, San Diego, CA).

T30 sequence (Q59H18 whole entry): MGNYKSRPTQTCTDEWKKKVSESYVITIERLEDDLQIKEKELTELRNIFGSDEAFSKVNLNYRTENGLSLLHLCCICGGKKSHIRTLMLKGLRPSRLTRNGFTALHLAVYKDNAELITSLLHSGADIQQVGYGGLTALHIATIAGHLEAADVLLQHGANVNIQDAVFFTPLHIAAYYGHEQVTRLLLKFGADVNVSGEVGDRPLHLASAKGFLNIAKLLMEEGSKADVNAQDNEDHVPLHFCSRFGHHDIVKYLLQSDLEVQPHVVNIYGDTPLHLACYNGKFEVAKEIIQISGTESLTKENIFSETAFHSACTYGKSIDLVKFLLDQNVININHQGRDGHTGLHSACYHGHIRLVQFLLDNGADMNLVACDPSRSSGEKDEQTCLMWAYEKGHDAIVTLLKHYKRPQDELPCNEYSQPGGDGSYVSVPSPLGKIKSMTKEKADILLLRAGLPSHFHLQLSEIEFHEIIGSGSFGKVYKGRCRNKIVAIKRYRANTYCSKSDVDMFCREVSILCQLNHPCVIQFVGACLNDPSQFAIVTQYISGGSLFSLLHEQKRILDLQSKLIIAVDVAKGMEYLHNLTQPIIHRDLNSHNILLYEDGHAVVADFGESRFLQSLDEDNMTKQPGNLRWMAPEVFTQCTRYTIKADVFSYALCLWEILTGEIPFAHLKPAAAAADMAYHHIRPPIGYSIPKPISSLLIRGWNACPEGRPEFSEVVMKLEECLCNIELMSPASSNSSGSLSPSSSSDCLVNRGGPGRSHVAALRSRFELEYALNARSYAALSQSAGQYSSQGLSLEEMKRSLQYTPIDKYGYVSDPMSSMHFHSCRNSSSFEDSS
T7 sequence (P00533 with tags, fused parts or gaps DEL747-749/A750P limits assumed): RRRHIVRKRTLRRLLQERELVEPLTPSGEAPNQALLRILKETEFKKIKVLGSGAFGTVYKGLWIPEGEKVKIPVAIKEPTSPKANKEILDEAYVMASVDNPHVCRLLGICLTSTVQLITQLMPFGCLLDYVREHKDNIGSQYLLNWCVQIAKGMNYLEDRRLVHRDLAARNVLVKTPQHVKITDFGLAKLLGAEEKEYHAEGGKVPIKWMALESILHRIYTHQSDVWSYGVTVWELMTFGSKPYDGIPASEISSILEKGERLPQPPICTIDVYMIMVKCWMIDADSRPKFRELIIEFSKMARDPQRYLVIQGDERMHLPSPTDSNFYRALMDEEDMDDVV
T28 sequence (Q7L7X3 whole entry): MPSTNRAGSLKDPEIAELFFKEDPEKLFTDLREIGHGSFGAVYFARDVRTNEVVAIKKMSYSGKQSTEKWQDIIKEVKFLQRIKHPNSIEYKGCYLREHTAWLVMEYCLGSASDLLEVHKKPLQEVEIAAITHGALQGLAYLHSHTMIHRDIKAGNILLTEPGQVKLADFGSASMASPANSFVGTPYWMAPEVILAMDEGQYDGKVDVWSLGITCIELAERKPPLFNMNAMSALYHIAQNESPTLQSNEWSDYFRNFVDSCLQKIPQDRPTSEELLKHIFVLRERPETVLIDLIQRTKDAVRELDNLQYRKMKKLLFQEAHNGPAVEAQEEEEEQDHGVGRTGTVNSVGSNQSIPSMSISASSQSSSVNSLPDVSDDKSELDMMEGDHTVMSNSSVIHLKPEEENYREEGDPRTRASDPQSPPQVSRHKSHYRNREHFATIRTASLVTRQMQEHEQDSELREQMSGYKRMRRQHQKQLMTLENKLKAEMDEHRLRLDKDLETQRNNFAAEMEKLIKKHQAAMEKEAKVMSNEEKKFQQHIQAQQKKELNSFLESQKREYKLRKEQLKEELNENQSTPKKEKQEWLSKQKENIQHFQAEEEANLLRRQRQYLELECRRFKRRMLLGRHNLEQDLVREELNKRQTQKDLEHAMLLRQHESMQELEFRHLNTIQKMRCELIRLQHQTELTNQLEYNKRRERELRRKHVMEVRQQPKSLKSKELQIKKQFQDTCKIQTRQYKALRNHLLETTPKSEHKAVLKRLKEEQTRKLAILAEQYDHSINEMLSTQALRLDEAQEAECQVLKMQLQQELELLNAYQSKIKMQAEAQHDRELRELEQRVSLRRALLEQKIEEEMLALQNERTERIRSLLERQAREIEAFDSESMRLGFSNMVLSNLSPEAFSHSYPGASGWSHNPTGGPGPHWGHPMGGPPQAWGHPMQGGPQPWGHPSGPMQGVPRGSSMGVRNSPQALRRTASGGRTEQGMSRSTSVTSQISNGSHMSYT
T33 sequence (P42681 whole entry): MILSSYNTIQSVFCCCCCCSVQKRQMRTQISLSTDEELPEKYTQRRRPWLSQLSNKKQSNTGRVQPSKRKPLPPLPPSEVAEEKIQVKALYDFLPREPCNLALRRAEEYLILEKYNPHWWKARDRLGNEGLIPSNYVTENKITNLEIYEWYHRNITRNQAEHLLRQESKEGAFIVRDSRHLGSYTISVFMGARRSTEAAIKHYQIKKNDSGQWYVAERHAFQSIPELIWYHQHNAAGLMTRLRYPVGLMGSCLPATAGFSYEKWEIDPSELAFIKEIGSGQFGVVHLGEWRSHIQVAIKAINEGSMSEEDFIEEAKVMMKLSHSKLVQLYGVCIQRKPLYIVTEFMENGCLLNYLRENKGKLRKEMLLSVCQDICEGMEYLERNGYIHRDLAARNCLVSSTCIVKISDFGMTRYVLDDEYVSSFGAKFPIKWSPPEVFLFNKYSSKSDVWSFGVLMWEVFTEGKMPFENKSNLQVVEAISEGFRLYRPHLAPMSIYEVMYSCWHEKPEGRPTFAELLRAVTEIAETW
T8 sequence (P21709 26-976): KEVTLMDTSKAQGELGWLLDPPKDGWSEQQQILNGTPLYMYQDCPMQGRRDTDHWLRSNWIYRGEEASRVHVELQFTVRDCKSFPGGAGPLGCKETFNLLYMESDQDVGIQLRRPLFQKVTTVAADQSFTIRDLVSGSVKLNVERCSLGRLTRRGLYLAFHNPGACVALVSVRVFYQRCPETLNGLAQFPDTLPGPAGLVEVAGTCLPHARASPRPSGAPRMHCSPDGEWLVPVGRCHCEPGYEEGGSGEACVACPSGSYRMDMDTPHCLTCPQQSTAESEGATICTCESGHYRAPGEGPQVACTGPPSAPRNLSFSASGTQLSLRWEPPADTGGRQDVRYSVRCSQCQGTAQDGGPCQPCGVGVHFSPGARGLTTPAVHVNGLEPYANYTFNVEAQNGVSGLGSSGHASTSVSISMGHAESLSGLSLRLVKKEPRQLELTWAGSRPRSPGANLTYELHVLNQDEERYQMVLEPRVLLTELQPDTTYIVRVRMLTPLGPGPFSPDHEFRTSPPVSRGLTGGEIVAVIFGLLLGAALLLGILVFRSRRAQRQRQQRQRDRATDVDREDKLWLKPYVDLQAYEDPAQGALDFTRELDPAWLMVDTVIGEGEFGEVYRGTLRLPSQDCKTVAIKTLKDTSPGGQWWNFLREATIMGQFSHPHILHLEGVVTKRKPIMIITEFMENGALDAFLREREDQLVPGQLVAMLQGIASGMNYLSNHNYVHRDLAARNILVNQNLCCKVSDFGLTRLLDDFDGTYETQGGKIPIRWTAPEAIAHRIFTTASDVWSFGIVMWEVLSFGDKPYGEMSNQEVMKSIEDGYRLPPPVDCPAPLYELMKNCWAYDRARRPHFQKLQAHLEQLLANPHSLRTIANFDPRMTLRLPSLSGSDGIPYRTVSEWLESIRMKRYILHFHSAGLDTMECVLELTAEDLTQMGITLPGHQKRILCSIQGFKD
T24 sequence (O75116 whole entry): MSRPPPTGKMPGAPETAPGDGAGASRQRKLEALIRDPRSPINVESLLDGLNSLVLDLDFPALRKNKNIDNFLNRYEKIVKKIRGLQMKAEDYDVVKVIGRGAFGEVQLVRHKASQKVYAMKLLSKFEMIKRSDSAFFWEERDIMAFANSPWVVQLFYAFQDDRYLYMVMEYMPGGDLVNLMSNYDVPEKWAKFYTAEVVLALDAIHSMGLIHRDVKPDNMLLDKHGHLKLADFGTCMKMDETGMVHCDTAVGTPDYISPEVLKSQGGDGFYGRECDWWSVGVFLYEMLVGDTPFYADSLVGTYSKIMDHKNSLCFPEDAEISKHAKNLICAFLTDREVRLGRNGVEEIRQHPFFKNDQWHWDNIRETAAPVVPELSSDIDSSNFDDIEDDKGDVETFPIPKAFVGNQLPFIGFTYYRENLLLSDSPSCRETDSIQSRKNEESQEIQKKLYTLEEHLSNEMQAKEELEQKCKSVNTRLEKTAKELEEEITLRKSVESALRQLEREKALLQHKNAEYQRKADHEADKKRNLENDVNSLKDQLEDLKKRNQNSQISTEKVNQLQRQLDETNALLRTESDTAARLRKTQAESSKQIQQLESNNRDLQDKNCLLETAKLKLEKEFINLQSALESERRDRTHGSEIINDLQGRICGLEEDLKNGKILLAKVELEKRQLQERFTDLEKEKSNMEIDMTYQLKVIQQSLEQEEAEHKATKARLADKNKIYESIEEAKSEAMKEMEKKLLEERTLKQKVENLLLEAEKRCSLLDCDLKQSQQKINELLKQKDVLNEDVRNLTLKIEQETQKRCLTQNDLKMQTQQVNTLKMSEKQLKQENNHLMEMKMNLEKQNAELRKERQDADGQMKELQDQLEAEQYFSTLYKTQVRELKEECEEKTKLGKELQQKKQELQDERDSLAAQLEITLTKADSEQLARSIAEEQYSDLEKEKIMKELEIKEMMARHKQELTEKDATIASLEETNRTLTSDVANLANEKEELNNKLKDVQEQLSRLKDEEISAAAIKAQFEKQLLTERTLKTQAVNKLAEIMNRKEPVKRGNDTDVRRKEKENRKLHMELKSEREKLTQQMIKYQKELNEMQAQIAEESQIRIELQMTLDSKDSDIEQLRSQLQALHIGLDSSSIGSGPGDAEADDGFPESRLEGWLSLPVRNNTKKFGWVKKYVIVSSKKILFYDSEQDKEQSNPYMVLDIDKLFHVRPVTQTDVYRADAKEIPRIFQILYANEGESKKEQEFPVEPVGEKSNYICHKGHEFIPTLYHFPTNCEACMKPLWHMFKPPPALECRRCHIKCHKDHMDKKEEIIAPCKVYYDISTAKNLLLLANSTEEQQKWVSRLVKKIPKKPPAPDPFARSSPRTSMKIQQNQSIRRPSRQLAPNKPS

Compound: Cc1nc(NC(=O)[C@@H](N)C(C)C)sc1-c1cnc(Cl)c(NS(=O)(=O)c2ccccc2)c1 [PI3KD-IN-015]
- KinomeScan ABL1(F317L)-phosphorylated [1]: 99
- KinomeScan ABL1(Q252H)-nonphosphorylated [2]: 100
- KinomeScan AXL (AXL): 97
- KinomeScan BRK (BRK): 92
- KinomeScan CDK9 (CDK9): 100
- KinomeScan EGFR(G719C) (EGFR(G719C)): 100
- KinomeScan EGFR(L747-E749del, A750P) [3]: 100
- KinomeScan EPHA1 (EPHA1): 100
- KinomeScan ERBB4 (ERBB4): 98
- KinomeScan FLT3(D835Y) (FLT3(D835Y)): 98
- KinomeScan FLT3(K663Q) (FLT3(K663Q)): 100
- KinomeScan HIPK4 (HIPK4): 83
- KinomeScan HUNK (HUNK): 100
- KinomeScan IKK-beta (IKK-beta): 100
- KinomeScan INSR (INSR): 74
- KinomeScan IRAK4 (IRAK4): 67
- KinomeScan MTOR (MTOR): 28
- KinomeScan MYLK (MYLK): 94
- KinomeScan NDR1 (NDR1): 100
- KinomeScan PAK6 (PAK6): 91
- KinomeScan PIK3CA(H1047Y) (PIK3CA(H1047Y)): 4.4
- KinomeScan PKMYT1 (PKMYT1): 100
- KinomeScan RET(M918T) (RET(M918T)): 95
- KinomeScan ROCK2 (ROCK2): 85
- KinomeScan RPS6KA5(Kin.Dom.2-C-terminal) [4]: 100
- KinomeScan RSK3(Kin.Dom.2-C-terminal) [5]: 99
- KinomeScan SRPK3 (SRPK3): 100
- KinomeScan SYK (SYK): 100
- KinomeScan TAOK1 (TAOK1): 96
- KinomeScan TLK2 (TLK2): 100
- KinomeScan TNNI3K (TNNI3K): 95
- KinomeScan TRPM6 (TRPM6): 100
- KinomeScan TSSK1B (TSSK1B): 97
- KinomeScan TXK (TXK): 100
- GI50 (AML patient primary cell; AML1, patient primary cell AML1): 1.83 µM
- GI50 (AML patient primary cell; AML3, patient primary cell AML3): 9.2 µM
- GI50 (AML patient primary cell; most of AML patient cells): < 10 µM
- GI50 (AML patient primary cell; patient primary cell AML2): 0.85 µM
- GI50 (AML patient primary cell; patient primary cell AML4): 2.8 µM
- GI50 (AML patient primary cell; patient primary cell AML5): 6.3 µM
- GI50 (AML patient primary cell; patient primary cell AML6): > 10 µM
